According to PubChem BioAssay (NCI):
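Where inhibition never reached the appropriate level, the endpoint shown equals the highest concentration tested. Otherwise, values were interpolated linearly from a five-concentration, 48-hour dose response in 96-well plates. The concentration for 50% growth inhibition is given as GI50. At the TGI there is no net growth.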

Assays:
Assay in all cases: growth of human tumour cells (NCI), 48 h; in the data active = GI50 below about 0.43 µM; inactive = the rest
MALME-3M melanoma = tested on: MALME-3M melanoma
CAKI-1 renal = tested on: CAKI-1 renal
SN12C renal = tested on: SN12C renal
OVCAR-3 ovarian = tested on: OVCAR-3 ovarian
SK-MEL-28 melanoma = tested on: SK-MEL-28 melanoma
SR leukemia = tested on: SR leukemia
HOP-62 NSCLC = tested on: HOP-62 NSCLC
MCF7 breast = tested on: MCF7 breast
OVCAR-4 ovarian = tested on: OVCAR-4 ovarian
IGROV1 ovarian = tested on: IGROV1 ovarian
SF-295 CNS = tested on: SF-295 CNS
DU-145 prostate = tested on: DU-145 prostate
RPMI-8226 leukemia = tested on: RPMI-8226 leukemia
MDA-MB-231 breast = tested on: MDA-MB-231 breast
SW-620 colon = tested on: SW-620 colon
HCT-15 colon = tested on: HCT-15 colon
ACHN renal = tested on: ACHN renal
SF-539 CNS = tested on: SF-539 CNS
NCI-H460 lung = tested on: NCI-H460 lung
U251 CNS = tested on: U251 CNS
MOLT-4 leukemia = tested on: MOLT-4 leukemia
KM12 colon = tested on: KM12 colon
HOP-92 NSCLC = tested on: HOP-92 NSCLC
TK-10 renal = tested on: TK-10 renal
OVCAR-5 ovarian = tested on: OVCAR-5 ovarian
HL-60(TB) leukemia = tested on: HL-60(TB) leukemia
HT29 colon = tested on: HT29 colon
UO-31 renal = tested on: UO-31 renal
M14 melanoma = tested on: M14 melanoma
HCT-116 colon = tested on: HCT-116 colon
SK-MEL-5 melanoma = tested on: SK-MEL-5 melanoma
SF-268 CNS = tested on: SF-268 CNS
LOX IMVI melanoma = tested on: LOX IMVI melanoma
MDA-MB-435 = tested on: MDA-MB-435
PC-3 prostate = tested on: PC-3 prostate
SK-OV-3 ovarian = tested on: SK-OV-3 ovarian
OVCAR-8 ovarian = tested on: OVCAR-8 ovarian
CCRF-CEM leukemia = tested on: CCRF-CEM leukemia
K-562 leukemia = tested on: K-562 leukemia
NCI/ADR-RES ovarian = tested on: NCI/ADR-RES ovarian
COLO 205 colon = tested on: COLO 205 colon
UACC-62 melanoma = tested on: UACC-62 melanoma
HCC-2998 colon = tested on: HCC-2998 colon
NCI-H522 lung = tested on: NCI-H522 lung
HS 578T breast = tested on: HS 578T breast
786-0 renal = tested on: 786-0 renal
SNB-19 CNS = tested on: SNB-19 CNS
A498 renal = tested on: A498 renal
NCI-H23 lung = tested on: NCI-H23 lung
NCI-H226 lung = tested on: NCI-H226 lung
BT-549 breast = tested on: BT-549 breast
T-47D breast = tested on: T-47D breast

CCOC(=O)c1cc2c(n1Cc1ccccc1OC)-c1oncc1CCC2
6.49 µM: TGI (OVCAR-3 ovarian)
7.43 µM: TGI (HOP-92 NSCLC)
inactive: GI50 (MALME-3M melanoma) 3.08 µM | GI50 (CAKI-1 renal) 3.51 µM | GI50 (SN12C renal) > 100 µM | GI50 (OVCAR-3 ovarian) 0.874 µM | GI50 (SK-MEL-28 melanoma) > 100 µM | GI50 (SR leukemia) 0.438 µM | GI50 (HOP-62 NSCLC) 1.89 µM | GI50 (MCF7 breast) 0.716 µM | GI50 (OVCAR-4 ovarian) 9.35 µM | GI50 (IGROV1 ovarian) 1.99 µM | GI50 (SF-295 CNS) 1.38 µM | GI50 (DU-145 prostate) 5.27 µM | GI50 (RPMI-8226 leukemia) 4.11 µM | GI50 (MDA-MB-231 breast) 9.12 µM | GI50 (SW-620 colon) 2.02 µM | GI50 (HCT-15 colon) 2.24 µM | GI50 (ACHN renal) 16.6 µM | GI50 (SF-539 CNS) 2.48 µM | GI50 (NCI-H460 lung) 3.89 µM | GI50 (U251 CNS) 3.78 µM | GI50 (MOLT-4 leukemia) 5.68 µM | GI50 (KM12 colon) 2.1 µM | GI50 (TK-10 renal) 67.8 µM | GI50 (OVCAR-5 ovarian) > 100 µM | GI50 (HL-60(TB) leukemia) 3.04 µM | GI50 (HT29 colon) 0.912 µM | GI50 (UO-31 renal) 6.53 µM | GI50 (M14 melanoma) 3.67 µM | GI50 (HCT-116 colon) 3.79 µM | GI50 (SK-MEL-5 melanoma) 2.61 µM | GI50 (SF-268 CNS) 46.2 µM | GI50 (LOX IMVI melanoma) 7.64 µM | GI50 (PC-3 prostate) 2.48 µM | GI50 (SK-OV-3 ovarian) 2.7 µM | GI50 (OVCAR-8 ovarian) 3.85 µM | GI50 (CCRF-CEM leukemia) 2.87 µM | GI50 (K-562 leukemia) 1.59 µM | GI50 (NCI/ADR-RES ovarian) 1.36 µM | GI50 (COLO 205 colon) 0.878 µM | GI50 (UACC-62 melanoma) 3.37 µM | GI50 (HCC-2998 colon) > 100 µM | GI50 (HS 578T breast) 3.38 µM | GI50 (786-0 renal) > 100 µM | GI50 (SNB-19 CNS) 64.7 µM | GI50 (A498 renal) 3.46 µM | GI50 (NCI-H23 lung) 8.52 µM | GI50 (NCI-H226 lung) > 100 µM | GI50 (BT-549 breast) 7.73 µM | GI50 (T-47D breast) 2.46 µM
8.57 µM: TGI (SF-539 CNS)
3.97 µM: TGI (COLO 205 colon)
> 100 µM: TGI (MALME-3M melanoma) | TGI (CAKI-1 renal) | TGI (SN12C renal) | TGI (SK-MEL-28 melanoma) | TGI (SR leukemia) | TGI (MCF7 breast) | TGI (OVCAR-4 ovarian) | TGI (IGROV1 ovarian) | TGI (DU-145 prostate) | TGI (RPMI-8226 leukemia) | TGI (MDA-MB-231 breast) | TGI (SW-620 colon) | TGI (HCT-15 colon) | TGI (ACHN renal) | TGI (NCI-H460 lung) | TGI (U251 CNS) | TGI (MOLT-4 leukemia) | TGI (KM12 colon) | TGI (TK-10 renal) | TGI (OVCAR-5 ovarian) | TGI (HL-60(TB) leukemia) | TGI (HT29 colon) | TGI (UO-31 renal) | TGI (M14 melanoma) | TGI (HCT-116 colon) | TGI (SK-MEL-5 melanoma) | TGI (SF-268 CNS) | TGI (LOX IMVI melanoma) | TGI (MDA-MB-435) | TGI (PC-3 prostate) | TGI (OVCAR-8 ovarian) | TGI (CCRF-CEM leukemia) | TGI (K-562 leukemia) | TGI (NCI/ADR-RES ovarian) | TGI (UACC-62 melanoma) | TGI (HCC-2998 colon) | TGI (HS 578T breast) | TGI (786-0 renal) | TGI (SNB-19 CNS) | TGI (A498 renal) | TGI (NCI-H23 lung) | TGI (NCI-H226 lung) | TGI (BT-549 breast) | TGI (T-47D breast)
active: GI50 (HOP-92 NSCLC) 0.309 µM | GI50 (MDA-MB-435) 0.351 µM | GI50 (NCI-H522 lung) 0.351 µM
19.7 µM: TGI (SK-OV-3 ovarian)
6.1 µM: TGI (SF-295 CNS)
9.9 µM: TGI (HOP-62 NSCLC)
2.88 µM: TGI (NCI-H522 lung)
